Usually IC50 stands for the midpoint of a concentration-inhibition curve.

One experiment has as its system chemo-nociception. To be noted: phenylbenzoquinone-induced writhing and formalin test; cited from earlier work.
For another experiment, the target named is N-type calcium channel (Homo sapiens, UniProt Q00975). Put plainly: N-Channel FLIPR (Fluorescent Laser Imaging Plate Reader) assay. Type of experiment: cell-based. The following applies: inhibition of 80 mM K+ evoked calcium flux, differentiated IMR32 cells. A general note: Calcium assays in cells follow changes in intracellular calcium, usually with a dye or a luminescent sensor.
Sequence of N-type calcium channel (Q00975 whole entry): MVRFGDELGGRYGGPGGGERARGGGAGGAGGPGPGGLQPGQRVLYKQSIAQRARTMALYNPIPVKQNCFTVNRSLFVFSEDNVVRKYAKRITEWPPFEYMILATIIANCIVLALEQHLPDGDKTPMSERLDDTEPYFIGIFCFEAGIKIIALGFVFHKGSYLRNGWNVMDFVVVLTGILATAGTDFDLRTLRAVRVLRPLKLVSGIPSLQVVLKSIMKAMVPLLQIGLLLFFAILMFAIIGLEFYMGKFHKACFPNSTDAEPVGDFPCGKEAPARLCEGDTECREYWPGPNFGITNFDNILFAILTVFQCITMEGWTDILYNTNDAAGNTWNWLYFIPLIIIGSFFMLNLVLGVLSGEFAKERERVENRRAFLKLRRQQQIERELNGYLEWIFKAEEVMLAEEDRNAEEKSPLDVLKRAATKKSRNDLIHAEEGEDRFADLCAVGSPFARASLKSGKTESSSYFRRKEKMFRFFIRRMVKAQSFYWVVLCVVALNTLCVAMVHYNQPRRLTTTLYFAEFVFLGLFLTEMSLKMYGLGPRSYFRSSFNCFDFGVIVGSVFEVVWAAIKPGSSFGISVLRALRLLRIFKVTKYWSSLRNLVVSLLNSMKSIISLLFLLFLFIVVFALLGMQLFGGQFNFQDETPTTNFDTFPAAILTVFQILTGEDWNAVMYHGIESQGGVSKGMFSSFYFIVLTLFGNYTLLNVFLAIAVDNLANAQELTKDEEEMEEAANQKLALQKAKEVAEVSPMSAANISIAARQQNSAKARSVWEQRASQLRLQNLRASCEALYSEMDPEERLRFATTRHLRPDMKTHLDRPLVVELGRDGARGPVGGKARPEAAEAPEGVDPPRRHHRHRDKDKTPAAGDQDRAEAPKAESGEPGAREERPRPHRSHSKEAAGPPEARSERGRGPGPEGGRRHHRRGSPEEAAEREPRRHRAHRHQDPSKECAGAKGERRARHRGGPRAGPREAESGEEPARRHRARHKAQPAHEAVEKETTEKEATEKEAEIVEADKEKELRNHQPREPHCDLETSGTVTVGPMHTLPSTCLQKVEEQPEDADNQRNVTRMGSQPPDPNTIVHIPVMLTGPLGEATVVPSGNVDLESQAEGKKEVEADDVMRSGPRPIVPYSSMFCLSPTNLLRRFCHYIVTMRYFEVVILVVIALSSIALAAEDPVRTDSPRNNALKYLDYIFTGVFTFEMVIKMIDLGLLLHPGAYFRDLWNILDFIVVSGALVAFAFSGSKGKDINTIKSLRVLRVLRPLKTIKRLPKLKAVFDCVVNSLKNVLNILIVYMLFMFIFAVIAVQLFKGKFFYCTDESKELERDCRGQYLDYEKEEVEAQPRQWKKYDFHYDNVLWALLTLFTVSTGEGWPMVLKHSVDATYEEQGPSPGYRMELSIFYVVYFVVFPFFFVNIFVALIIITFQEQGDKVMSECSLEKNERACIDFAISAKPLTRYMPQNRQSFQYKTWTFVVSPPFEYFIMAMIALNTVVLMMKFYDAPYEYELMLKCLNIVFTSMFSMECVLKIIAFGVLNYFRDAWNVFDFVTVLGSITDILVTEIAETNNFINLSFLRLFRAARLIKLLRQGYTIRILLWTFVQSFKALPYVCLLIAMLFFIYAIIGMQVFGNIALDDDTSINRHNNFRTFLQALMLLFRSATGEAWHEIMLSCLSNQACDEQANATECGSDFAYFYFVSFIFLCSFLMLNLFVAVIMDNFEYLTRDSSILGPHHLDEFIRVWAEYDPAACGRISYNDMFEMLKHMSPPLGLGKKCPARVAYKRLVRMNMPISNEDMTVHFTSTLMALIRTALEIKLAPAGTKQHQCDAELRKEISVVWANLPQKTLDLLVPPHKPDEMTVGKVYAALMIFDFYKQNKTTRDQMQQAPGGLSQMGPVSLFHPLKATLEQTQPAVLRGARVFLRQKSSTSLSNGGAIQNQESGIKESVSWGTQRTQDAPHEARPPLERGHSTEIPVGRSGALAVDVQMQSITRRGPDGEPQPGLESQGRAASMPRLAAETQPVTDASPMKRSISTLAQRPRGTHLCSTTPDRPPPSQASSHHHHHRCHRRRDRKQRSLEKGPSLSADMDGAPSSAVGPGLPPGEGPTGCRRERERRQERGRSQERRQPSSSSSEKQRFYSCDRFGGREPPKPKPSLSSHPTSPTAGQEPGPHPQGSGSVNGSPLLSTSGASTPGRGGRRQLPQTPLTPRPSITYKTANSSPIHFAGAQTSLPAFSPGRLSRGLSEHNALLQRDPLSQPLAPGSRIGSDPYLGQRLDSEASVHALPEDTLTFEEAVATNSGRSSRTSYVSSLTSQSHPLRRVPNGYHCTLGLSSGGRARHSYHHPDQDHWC
Sequence of N-type calcium channel (P54289 25-1103 partner): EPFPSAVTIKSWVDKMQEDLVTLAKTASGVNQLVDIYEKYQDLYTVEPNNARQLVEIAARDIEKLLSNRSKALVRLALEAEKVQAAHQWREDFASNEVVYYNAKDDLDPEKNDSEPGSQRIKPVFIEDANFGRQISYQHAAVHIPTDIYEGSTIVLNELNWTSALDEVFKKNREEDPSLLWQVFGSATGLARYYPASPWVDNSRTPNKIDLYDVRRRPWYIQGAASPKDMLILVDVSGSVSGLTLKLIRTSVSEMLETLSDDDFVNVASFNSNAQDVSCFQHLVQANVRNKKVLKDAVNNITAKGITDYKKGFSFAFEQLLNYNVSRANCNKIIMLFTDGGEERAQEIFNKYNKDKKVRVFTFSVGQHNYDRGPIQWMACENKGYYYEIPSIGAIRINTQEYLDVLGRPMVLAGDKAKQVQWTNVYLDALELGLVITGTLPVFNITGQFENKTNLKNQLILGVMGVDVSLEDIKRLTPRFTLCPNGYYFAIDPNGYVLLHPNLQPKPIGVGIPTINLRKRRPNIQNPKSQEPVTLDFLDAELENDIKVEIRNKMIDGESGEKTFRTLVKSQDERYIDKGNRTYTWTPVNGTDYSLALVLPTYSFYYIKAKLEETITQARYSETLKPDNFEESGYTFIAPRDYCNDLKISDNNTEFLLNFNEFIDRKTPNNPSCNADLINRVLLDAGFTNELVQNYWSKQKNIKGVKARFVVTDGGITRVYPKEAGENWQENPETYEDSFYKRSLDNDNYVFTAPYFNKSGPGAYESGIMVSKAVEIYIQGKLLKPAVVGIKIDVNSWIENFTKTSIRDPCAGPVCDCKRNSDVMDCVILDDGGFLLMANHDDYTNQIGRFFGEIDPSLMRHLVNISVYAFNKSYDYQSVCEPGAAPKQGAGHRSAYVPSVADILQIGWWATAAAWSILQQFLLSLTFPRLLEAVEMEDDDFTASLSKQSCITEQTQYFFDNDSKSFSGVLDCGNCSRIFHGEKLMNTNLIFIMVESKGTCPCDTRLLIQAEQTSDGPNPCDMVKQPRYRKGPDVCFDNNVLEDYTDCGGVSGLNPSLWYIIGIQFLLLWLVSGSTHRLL
Sequence of N-type calcium channel (P54284 whole entry partner): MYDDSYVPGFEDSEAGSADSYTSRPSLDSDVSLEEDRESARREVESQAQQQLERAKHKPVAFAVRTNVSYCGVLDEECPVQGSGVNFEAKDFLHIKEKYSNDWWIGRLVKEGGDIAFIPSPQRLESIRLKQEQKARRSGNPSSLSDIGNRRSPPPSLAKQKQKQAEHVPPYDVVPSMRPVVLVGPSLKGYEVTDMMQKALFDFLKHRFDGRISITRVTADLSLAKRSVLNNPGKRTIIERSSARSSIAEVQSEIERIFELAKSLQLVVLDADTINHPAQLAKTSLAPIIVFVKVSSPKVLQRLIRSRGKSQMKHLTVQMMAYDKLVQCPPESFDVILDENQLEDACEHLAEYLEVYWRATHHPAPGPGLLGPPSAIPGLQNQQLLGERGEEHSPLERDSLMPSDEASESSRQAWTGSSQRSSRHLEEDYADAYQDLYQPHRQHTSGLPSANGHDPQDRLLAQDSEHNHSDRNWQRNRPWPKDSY

The test system of experiment [1] is formalin-induced nocifensive behaviours. Put plainly: Formalin test. Type of experiment: in vivo, rats. The method, then: II. Formalin Test. The Formalin test assesses the inhibitory effects of orally administered N-type calcium channel antagonists on formalin-induced nocifensive behaviours in rats. The formalin test is a well established pain test (Dubuisson and Dennis, 1977; Wheeler-Aceto et al., 1990; Coderre et al., 1993). This test consists of two distinct phases of formalin-induced behavior. The first phase response, occurring between 0 to 5 minutes, is caused by acute nociception to the noxious chemical (formalin) injected into the paw. This is followed by a quiescent period of between 5 to 15 min post injection. A second phase response, occurring after 15 minutes and lasting up to 60 minutes, is caused by sensitization of the central neurons in the dorsal horn. Central sensitization augments the noxious afferent input and a stronger pain barrage is transmitted into the brain. Inhibition of the second phase response is indicative of a central mechanism of drug action. The procedure for the formalin test is as follows: male rats are placed in a Plexiglas chamber and observed for 30-45 min. to observe their baseline activity. Multiple groups of animals are pretreated with either vehicle or different doses of a test compound. Animals are dosed with the drug of interest either 40 min., if by the intraperitoneal route, or 90 min., if by the oral route, prior to injection of formalin into a hind paw (under the dorsal skin; 0.05 mL of sterile 5% formalin). The number of paw flinches and licks during first phase (0-5 min.) and second phase (20-35 min.) are scored and recorded. […] and lick responses are calculated as percentage of inhibition compared with the mean score of a saline control group. Drug potencies are expressed as the dose which causes 50% of the maximum inhibitory effect (“ID50”). Student t-tests are used for statistical analysis to determine the significance of drug effects. Compounds are considered active based on their ability to inhibit the flinch response.

As for `COc1ccccc1CC(=N)N1C[C@@H]2C(=O)CCC(c3ccccc3)(c3ccccc3)[C@@H]2C1` [RP 67,580], in the experiment with chemo-nociception, the analgesia result is given as “produced analgesia with potency comparable to that of morphine”.
With `COc1ccc(Nc2cc(NCC(C)(C)C)c3cccc(F)c3n2)cc1OC` [Example 8, N2(3,4-Dimethoxy-phenyl)-N4(2,2-dimethyl-propyl)-8-fluoro-quinoline-2,4-diamine], on N-type calcium channel, the half-maximal inhibitory concentration (IC50) stood at 2820 nM.
For the molecule `CC(C)(C)CNc1cc(Nc2ccccc2N2CCOCC2)nc2ccccc12` [Example 7, N4(2,2-dimethyl-propyl)-N2(2-morpholin-4-yl-phenyl)-quinoline-2,4-diamine], on N-type calcium channel, the concentration for half-maximal inhibition (IC50) was 670 nM. Besides, in experiment [1] ((59, 40, IP)), the “Formalin test % inhibition (dose, time, route)” value (“Formalin test % inhibition” for short) is on record as 24 (59, 40, IP) %.
`CC(C)(C)CNc1cc(Nc2ccc(F)c(Cl)c2)nc2ccccc12` [Example 2, N2(3-chloro-4-fluoro-phenyl)-N4(2,2-dimethyl-propyl)-quinoline-2,4-diamine]: the IC50 on N-type calcium channel came to 5870 nM. The “Formalin test % inhibition” value in experiment [1] ((76, 40, IP)) is on record as 39 (76, 40, IP) %.
In the case of `CC(C)(C)CNc1cc(Nc2ccc3ncsc3c2)nc2c(F)cccc12` [Example 11, N2-Benzothiazol-6-yl-N4(2,2-dimethyl-propyl)-8-fluoro-quinoline-2,4-diamine], the IC50 on N-type calcium channel turned out to be 6870 nM.
Regarding `COc1ccc(Nc2cc(NCC(C)(C)C)c3ccccc3n2)cc1OC` [Example 3, N2(3,4-dimethoxy-phenyl)-N4(2,2-dimethyl-propyl)-quinoline-2,4-diamine], the IC50 on N-type calcium channel turned out to be 1720 nM. The “Formalin test % inhibition” value in experiment [1] ((75, 40, IP)) was 22 (75, 40, IP) %.

The record behind these values is US7060834B2, “N-type calcium channel antagonists for the treatment of pain” (AstraZeneca AB, priority 2001, dated 2006).
